What all share (type): in vivo
The test system of experiment [1] is glyphosate-resistant Amaranthus palmeri in which the number of copies of EPSPS gene had been increased. The experiment in a line: Herbicidal effect, foliar spray on potted weeds in greenhouse. Particulars: rating 0 to 100, 14 days after foliar spray, 200 L/ha. The procedure: (§1) In a plastic pot filled with soli were seeded glyphosate-resistant Amaranthus palmeri in which the number of copies of EPSPS gene had been increased (produced by Azlin Seed Service) and glyphosate-sensitive Amaranthus palmeri (produced by Azlin Seed Service). The weeds were cultivated in a greenhouse for 18 days, and then an aqueous spray liquid [i.e., a liquid prepared by diluting a predetermined amount of a trifludimoxazin formulation (i.e., an emulsifiable concentrate prepared by mixing 20 parts of trifludimoxazin with 80 parts of a liquid cocktail (i.e., a mixture of 5 parts of cyclohexanone and 1 part of SORPOL 2680X (manufactured by TOHO Chemical Industry Co., Ltd.))) with water containing a spreading agent] was sprayed uniformly from above the weeds at the amount of 200 L/ha using a sprayer. Subsequently, the weeds were allowed to grow in a greenhouse for 14 days, and then the herbicidal effect was examined. As a reference example, the same procedure was carried out, except that the trifludimoxazin formulation was replaced with a predetermined amount of a glyphosate formulation (i.e., a soluble liquid containing 660 g/L of glyphosate potassium salt: “ROUNDUP MAXLOAD” (manufactured by Nissan Chemical Corporation). The results are shown in the table 1.

Experiment [2] concerns glyphosate-sensitive Amaranthus palmeri. Described as above. Conditions: rating 0 to 100, 14 days after foliar spray, 200 L/ha. The procedure: as §1
The test system of experiment [3] is glyphosate-resistant weeds (Amaranthus palmeri, waterhemp, kochia, marestail, Guernsey fleabane, fleabane, goosegrass, darnel) and volunteer …. As to the kind of experiment: Soil treatment on day of seeding, greenhouse pot test (Example 1). Particulars: soil treatment at 6.25, 12.5, 25, 50, 100 or 150 g/ha; 200 L/ha; twenty-eight days after the treatment. The procedure: (§2) In a plastic pot filled with soil are seeded glyphosate-resistant Amaranthus palmeri in which the number of copies of EPSPS gene has been increased, glyphosate-resistant waterhemp in which the number of copies of EPSPS gene has been increased, glyphosate-resistant kochia in which the number of copies of EPSPS gene has been increased, marestail which is resistant to glyphosate by involving an ABC transporter, Guernsey fleabane which is resistant to glyphosate by involving an ABC transporter, fleabane which is resistant to glyphosate by involving an ABC transporter, glyphosate-resistant goosegrass having Thr102Ile, glyphosate-resistant goosegrass having Pro106Ser, glyphosate-resistant goosegrass having Pro106A1a, glyphosate-resistant goosegrass having Pro106Leu, glyphosate-resistant goosegrass having Thr102Ile and Pro106Ser, glyphosate-resistant darnel having Thr102Ile, glyphosate-resistant darnel having Pro106Ser, glyphosate-resistant darnel having Pro106Ala, glyphosate-resistant darnel having Pro106Leu, volunteer glyphosate-tolerant soybean, and volunteer glyphosate-tolerant cotton. On the same day, the soil is treated with trifludimoxazin at the application rate of 6.25, 12.5, 25, 50, 100 or 150 g/ha. The amount of a liquid sprayed is 200 L/ha. Subsequently, the plants are cultivated in a greenhouse.

For experiment [4] the test system is unchanged. As to the kind of experiment: Foliar treatment 21 days after seeding, greenhouse pot test (Example 2). Conditions: foliar treatment at 6.25, 125, 25, 50, 100 or 150 g/ha; 200 L/ha; fourteen days after the treatment. The procedure:
as §2, with “Pro106Ala,” for “Pro106A1a,”, “The plants are cultivated in a greenhouse for 21 days, and then trifludimoxazin is applied to foliage of” for “On”, “plants” for “same day, the soil is treated with trifludimoxazin”, “at” for “at the”, “[…],” for “12.5,”

Where a name gives a salt, the structure may show the parent alone.

Turning to `O=C(O)CNCP(=O)(O)O` [Glyphosate potassium salt, glyphosate potassium salt], the “Effect on glyphosate-resistant Amaranthus palmeri” value was found to be 20 in experiment [1] (application rate 1540 g/ha) and 70 in experiment [1] (application rate 6160 g/ha). Besides, the “Effect on glyphosate-sensitive Amaranthus palmeri” value in experiment [2] (application rate 385 g/ha) and in experiment [2] (application rate 1540 g/ha) was 100 in each case.

For the molecule `C#CCN1C(=O)C(F)(F)Oc2cc(F)c(-n3c(=O)n(C)c(=S)n(C)c3=O)cc21` [Trifludimoxazin, trifludimoxazin], the “Effect on glyphosate-resistant Amaranthus palmeri” value in experiment [1] (application rate 6.25 g/ha), in experiment [1] (application rate 12.5 g/ha) and in experiment [1] (application rate 25 g/ha) was 100 throughout. The “Effect on glyphosate-sensitive Amaranthus palmeri” value is reported as 65 in experiment [2] (application rate 6.25 g/ha), 70 in experiment [2] (application rate 12.5 g/ha) and 80 in experiment [2] (application rate 25 g/ha). For the same molecule, the “effect against the weeds” value in experiment [3] and in experiment [4] was “significant effect” each time.

Values taken from patent US20220053764A1, “METHOD OF CONTROLLING WEEDS” (SUMITOMO CHEMICAL COMPANY, LIMITED, priority 2018, published 2022).
